Values of other authors in US5162573A, “Valproic and (E)-2-valproenoic acid derivatives, and pharmaceutical compositions therefrom” (Chiesi Farmaceutici S.p.A., priority 1986, dated 1992).

How the values were obtained:
[1] = in comparison with valproic acid
[2] = not given; remark: listed apart in the source
[3] = oral administration of equimolecular doses, in comparison with valproic acid

Row | SMILES | half life in man | anticonvulsivant activity, potency and duration of action [1] | toxic effects ([2]; in comparison with valproic acid) | hepatic tolerability / hepatic reactions ([2]; in vivo) | teratogenic effects ([2]; in vivo) | hepatic concentration [3]
1 | CC/C=C(\CCC)C(=O)O [valproenoic acid, (E)-2-propyl-2-pentenoic acid] | 12.5 h | a wide spectrum anticonvulsivant activity, a potency and a duration of action comparable to those of valproic acid | remarkably reduced toxic effects | much better tolerated at hepatic level | totally devoid of teratogenic effects | remarkably reduced hepatic concentration in comparison with valproic acid
2 | CCCC(CCC)C(=O)O [valproic acid, 2-propyl-2-pentanoic acid] | 9 to 10 h | – | – | – | teratogenic effects | –
